Reference: US20210161855A1, “5-LIPOXYGENASE ANTAGONISTS” (INSTITUTO DE MEDICINA MOLECULAR JOÃO LOBO ANTUNES, priority 2017, published 2021)

Key:
purified human 5-LO = biological target: T1, purified human 5-LO (Homo sapiens, UniProt P09917); test: Intrinsic tryptophan fluorescence; format: binding; settings: 1 mM dithiothreitol, increasing concentrations
T1 construct: purchased Abcam ab114310
T1 sequence (P09917 1-674): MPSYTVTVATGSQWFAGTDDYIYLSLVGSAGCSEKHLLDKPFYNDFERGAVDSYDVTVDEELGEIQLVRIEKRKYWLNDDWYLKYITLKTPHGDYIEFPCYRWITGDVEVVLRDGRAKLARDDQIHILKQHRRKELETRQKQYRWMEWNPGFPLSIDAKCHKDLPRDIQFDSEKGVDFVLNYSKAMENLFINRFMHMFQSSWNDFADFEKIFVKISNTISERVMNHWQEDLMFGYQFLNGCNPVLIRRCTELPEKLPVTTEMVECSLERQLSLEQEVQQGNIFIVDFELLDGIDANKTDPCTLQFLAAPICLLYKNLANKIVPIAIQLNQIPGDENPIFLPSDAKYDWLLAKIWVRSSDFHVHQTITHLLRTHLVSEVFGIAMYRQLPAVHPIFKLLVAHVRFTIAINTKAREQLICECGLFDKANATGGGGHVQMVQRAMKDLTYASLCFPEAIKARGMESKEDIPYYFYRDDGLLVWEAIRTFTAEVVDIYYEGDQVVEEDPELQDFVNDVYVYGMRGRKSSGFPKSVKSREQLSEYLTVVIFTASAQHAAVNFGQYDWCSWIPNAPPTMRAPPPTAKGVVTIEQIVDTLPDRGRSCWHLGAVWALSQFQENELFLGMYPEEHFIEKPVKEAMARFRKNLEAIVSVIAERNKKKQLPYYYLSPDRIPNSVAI
Protocol: 5-Lipoxygenase (Cat No. ab114310, Abcam) was concentrated to 0.5 μM in buffer (50 mM Tris-HCl, pH 8.0, 5 mM CaCl2). […] The final DMSO concentration was kept under 0.1%. Fluorescent measurements were performed using a 1 cm pathlength quartz cuvette. Spectra were collected in an Edinburgh Instruments FLS920 Series Fluorescence Spectrophotometer at 25° C. with fluorescence excitation and scanning emission set to 295 nm and 310 to 450 nm, respectively. All assays were carried out in triplicate.

[1] = biological target: T2, 15-lipoxygenase-2 (15-LO-2) (Homo sapiens, UniProt O15296); test: 15-LO-2 inhibition assay, Method A (Cerep); format: biochemical
T2 sequence (O15296 1-676): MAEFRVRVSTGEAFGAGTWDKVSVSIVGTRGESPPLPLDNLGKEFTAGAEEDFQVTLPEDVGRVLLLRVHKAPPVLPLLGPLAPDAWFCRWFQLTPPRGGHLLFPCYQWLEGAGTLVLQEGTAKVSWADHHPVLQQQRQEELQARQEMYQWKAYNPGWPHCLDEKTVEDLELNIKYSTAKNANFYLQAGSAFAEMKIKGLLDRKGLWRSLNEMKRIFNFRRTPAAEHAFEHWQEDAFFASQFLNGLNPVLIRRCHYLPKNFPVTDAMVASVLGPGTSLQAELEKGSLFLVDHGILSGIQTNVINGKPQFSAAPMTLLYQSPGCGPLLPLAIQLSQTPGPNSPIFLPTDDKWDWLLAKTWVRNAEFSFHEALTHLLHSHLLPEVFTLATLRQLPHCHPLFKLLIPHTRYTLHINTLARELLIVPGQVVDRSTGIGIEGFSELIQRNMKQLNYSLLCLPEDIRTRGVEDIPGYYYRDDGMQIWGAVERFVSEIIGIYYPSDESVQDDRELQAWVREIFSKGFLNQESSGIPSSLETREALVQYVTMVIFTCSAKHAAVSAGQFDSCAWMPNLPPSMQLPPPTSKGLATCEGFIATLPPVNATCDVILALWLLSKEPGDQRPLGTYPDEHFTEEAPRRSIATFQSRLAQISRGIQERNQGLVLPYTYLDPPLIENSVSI
Protocol: Method A: 5-Lipoxygenase (5-LO), 12-lipoxygenase (12-LO) and 15-lipoxygenase-2 (15-LO-2) inhibition assays were performed at Cerep, SA (Celle l'Evescault, France) on a fee-for-service basis (Ref 0772^36, 0883^37 and 0893^38, respectively), as described in Table 1.

EP3 = biological target: T3, EP3 (Homo sapiens, UniProt P43115); test: Prostanoid EP3 receptor antagonism, functional assay; format: cell-based; settings: 150 μM
T3 sequence (P43115 1-390): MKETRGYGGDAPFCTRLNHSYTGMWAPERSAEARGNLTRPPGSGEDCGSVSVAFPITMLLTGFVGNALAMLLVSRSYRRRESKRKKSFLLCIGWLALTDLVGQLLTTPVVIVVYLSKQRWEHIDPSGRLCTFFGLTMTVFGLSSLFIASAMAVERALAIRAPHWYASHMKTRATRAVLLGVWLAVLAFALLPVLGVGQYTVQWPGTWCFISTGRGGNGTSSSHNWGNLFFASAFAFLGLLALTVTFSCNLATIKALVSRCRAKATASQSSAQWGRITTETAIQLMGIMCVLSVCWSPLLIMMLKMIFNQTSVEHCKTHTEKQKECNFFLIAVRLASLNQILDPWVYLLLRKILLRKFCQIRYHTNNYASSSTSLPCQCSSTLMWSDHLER

For CC1(C)CCC2=C(O1)c1ccccc1C(=O)C2=O [Compound 1, 3,4-dihydro-2,2-dimethyl-2H-naphtho[1,2-b]pyran-5,6-dione], the Tryptophan fluorescence shift (purified human 5-LO) was “blue shift”, the inhibition at 5 µM [1] was -13% and the EP3 antagonist effect (EP3) was 95%.
